Experimental data from ChEMBL document CHEMBL1121995, “Crystal structure and anti herpes simplex virus activity of 2,2'-anhydro-1-beta-D-arabinofuranosylthymine” (1982).

Experiments:
Format in all cases: functional
Vero [1] = test: Dose of compound required to reduced HSV-1 induced cytopathogenicity in vero cells; details: Chlorocebus sabaeus, read-out: ED50 (the source's name)
Vero [2] = test: Percentage inhibition against Vero cells at a concentration of 200 uM; details: Chlorocebus sabaeus
Vero [3] = test: Percentage inhibition against Vero cells at a concentration of 600 uM; details: Chlorocebus sabaeus

Molecule `Cc1cn(C2O[C@H](CO)[C@@H](O)[C@@H]2O)c(=O)n(C)c1=O` (stereo partly drawn) has an EC50 (Vero [1]) of 140 nM, an inhibition at 200 µM (Vero [2]) of 40% and an inhibition at 600 µM (Vero [3]) of 59%.
